This test relates to beta-TC6 cells. The test is described as follows: Insulin HTRF assay (relative activity Ar) in beta-TC6 cells. The following applies: Mus musculus, Beta-TC6, 4 h, insulin HTRF, supernatant of beta-TC6 cells, incubation with test compound at 37°C for 2, 3, 4h; read-out: Ar (relative activity). The format is cell-based, mouse. In a few lines:
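beta-TC6 cells (15k/well, seeded 24 or 48 h) washed, then exposed to compound in induction buffer (0.5% DMSO final) for 2, 3 or 4 h at 37°C.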
For orientation: Time-resolved FRET reads energy transfer from a long-lived donor to a nearby acceptor.

The values that follow come from patent publication EP2818472A1, “Imidazo[4,5-c]pyridine and pyrrolo[3,2-c]pyridine compounds as G-protein-coupled receptor kinase 5 (GRK5) modulators” (Max-Planck-Gesellschaft zur Förderung der Wissenschaften …, priority 2013, dated 2014).

Bounds are passed on as bounds.

As for `COc1ccc(Nc2nccc3c2cc(-c2cccnc2)n3C)cc1OC` [Compound 238, N-(3,4-dimethoxyphenyl)-1-methyl-2-(3-pyridyl)pyrrolo[3,2-c]pyridin-4-amine], the Emax lay in the range of 30 to 50%. Take `CN(C)C(=O)c1ccc(-c2cc3cnc(Nc4cccc(N(C)C)c4)cc3[nH]2)cc1` [Compound 27, 4-[6-[3-(dimethylamino)anilino]-1H-pyrrolo[3,2-c]pyridin-2-yl]-N,N-dimethyl-benzamide]: the Emax is 50 to 100%. The same measure for `COc1ccc(CNc2nc3cnc(Nc4ccc(OC)c(OC)c4)cc3n2C)cc1OC` [Compound 603, N6-(3,4-dimethoxyphenyl)-N2-[(3,4-dimethoxyphenyl)methyl]-1-methyl-imidazo[4,5-c]pyridine-2,6-diamine]: 50 to 100%. In the case of `CN1CCN(c2ccc(Nc3cc4c(cn3)cc(-c3ccc(C(=O)N(C)C)cc3)n4C)cc2)CC1` [Compound 49, N,N-dimethyl-4-[1-methyl-6-[4-(4-methylpiperazin-1-yl)anilino]pyrrolo[3,2-c]pyridin-2-yl]benzamide] it was 50 to 100%; in that of `CS(=O)(=O)c1cccc(Nc2nccc3[nH]c(-c4cccc(F)c4)cc23)c1` [Compound 202, 2-(3-fluorophenyl)-N-(3-methylsulfonylphenyl)-1H-pyrrolo[3,2-c]pyridin-4-amine], 30 to 50%; in that of `COc1ccc(Nc2nccc3[nH]c(-c4ccco4)nc23)cc1` [Compound 466, 2-(2-furyl)-N-(4-methoxyphenyl)-1H-imidazo[4,5-c]pyridin-4-amine], 50 to 100%. For `Cn1c(-c2ccsc2)cc2c(Nc3ccc(C#N)cc3)nccc21` [Compound 281, 4-[[1-methyl-2-(3-thienyl)pyrrolo[3,2-c]pyridin-4-yl]amino]benzonitrile], the Emax was 0 to 30%. In the case of `COc1ccc(-c2nc3c(N4CCOCC4)nccc3[nH]2)cc1` [Compound 399, 4-[2-(4-methoxyphenyl)-1H-imidazo[4,5-c]pyridin-4-yl]morpholine] it was 30 to 50%. Take `Cn1c(NCC2CCCO2)nc2cnc(-c3cccc(Oc4ccccc4)c3)cc21` (centres unmarked) [Compound 851, 1-methyl-6-(3-phenoxyphenyl)-N-(tetrahydrofuran-2-ylmethyl)imidazo[4,5-c]pyridin-2-amine]: the Emax fell in the range of 30 to 50%. With `CN(C)C(=O)c1ccc(-c2cc3c(Nc4cccc(Oc5ccccc5)c4)nccc3n2C)cc1` [Compound 223, N,N-dimethyl-4-[1-methyl-4-(3-phenoxyanilino)pyrrolo[3,2-c]pyridin-2-yl]benzamide], the Emax lay within 0 to 30%. In the case of `CNc1nc2cnc(Nc3cccc(NC(C)=O)c3)cc2n1-c1cc(OC)c(OC)c(OC)c1` [Compound 493, N-[3-[[2-(methylamino)-1-(3,4,5-trimethoxyphenyl)imidazo[4,5-c]pyridin-6-yl]amino]phenyl]acetamide] it was 50 to 100%. Turning to `COc1ccc(Nc2nccc3c2cc(-c2ccc(N(C)C)cc2)n3C)cc1O` [Compound 228, 5-[[2-(4-dimethylaminophenyl)-1-methyl-pyrrolo[3,2-c]pyridin-4-yl]amino]-2-methoxy-phenol], the Emax lay in the range of 50 to 100%. For the compound `CNc1nc2cnc(Nc3cccc(C)c3)cc2n1Cc1cccnc1` [Compound 564, N2-methyl-N6-(m-tolyl)-1-(3-pyridylmethyl)imidazo[4,5-c]pyridine-2,6-diamine], the Emax fell in the range of 50 to 100%. For the compound `COc1ccc(Nc2nccc3[nH]c(-c4cccc(C)c4)nc23)cc1OC` [Compound 436, N-(3,4-dimethoxyphenyl)-2-(m-tolyl)-1H-imidazo[4,5-c]pyridin-4-amine], the Emax was 50 to 100%.

Take `CNc1nc2cnc(Nc3cc(OC)c(OC)c(OC)c3)cc2n1CC1CC1` [Compound 567, 1-(cyclopropylmethyl)-N2-methyl-N6-(3,4,5-trimethoxyphenyl)imidazo[4,5-c]pyridine-2,6-diamine]: the Emax was in the range of 50 to 100%. In the case of `Cc1cccc(Nc2cc3[nH]c(-c4cn[nH]c4)cc3cn2)c1` [Compound 113, N-(m-tolyl)-2-(1H-pyrazol-4-yl)-1H-pyrrolo[3,2-c]pyridin-6-amine] it was 50 to 100%. The same measure for `COc1cc(Nc2cc3[nH]c(-c4cn[nH]c4)cc3cn2)cc(C(F)(F)F)c1` [Compound 116, N-[3-methoxy-5-(trifluoromethyl)phenyl]-2-(1H-pyrazol-4-yl)-1H-pyrrolo[3,2-c]pyridin-6-amine]: 0 to 30%.

For `CNc1nc2cnc(-c3cccs3)cc2n1Cc1ccc(OC)c(OC)c1` [Compound 880, 1-[(3,4-dimethoxyphenyl)methyl]-N-methyl-6-(2-thienyl)imidazo[4,5-c]pyridin-2-amine], the Emax lay within 30 to 50%. For the compound `CC(=O)Nc1ccc(Nc2cc3c(cn2)cc(-c2ccc(C(=O)N(C)C)cc2)n3Cc2ccccc2)cc1` [Compound 57, 4-[6-(4-acetamidoanilino)-1-benzyl-pyrrolo[3,2-c]pyridin-2-yl]-N,N-dimethyl-benzamide], the Emax was 30 to 50%. The same measure for `CN(C)C(=O)c1ccc(-c2cc3cnc(Nc4ccc(C(F)(F)F)cc4)cc3[nH]2)cc1` [Compound 32, N,N-dimethyl-4-[6-[4-(trifluoromethyl)anilino]-1H-pyrrolo[3,2-c]pyridin-2-yl]benzamide]: 30 to 50%.

As to `CNc1nc2cnc(Nc3cc(OC)cc(C(F)(F)F)c3)cc2n1Cc1ccco1` [Compound 767, 1-(2-furylmethyl)-N6-[3-methoxy-5-(trifluoromethyl)phenyl]-N2-methyl-imidazo[4,5-c]pyridine-2,6-diamine], the Emax was 0 to 30%. As for `Fc1cccc(Nc2cc3[nH]c(-c4ccccn4)cc3cn2)c1` [Compound 71, N-(3-fluorophenyl)-2-(2-pyridyl)-1H-pyrrolo[3,2-c]pyridin-6-amine], the Emax was in the range of 50 to 100%. With `Cn1c(Nc2ccccc2)nc2cnc(-c3ccc(N4CCOCC4)cc3)cc21` [Compound 630, 1-methyl-6-(4-morpholinophenyl)-N-phenyl-imidazo[4,5-c]pyridin-2-amine], the Emax was in the range of 50 to 100%. In the case of `CNc1nc2cnc(Nc3ccc4c(c3)OCCO4)cc2n1CC1CC1` [Compound 570, 1-(cyclopropylmethyl)-N6-(2,3-dihydro-1,4-benzodioxin-6-yl)-N2-methyl-imidazo[4,5-c]pyridine-2,6-diamine] it was 30 to 50%. On to `CNc1nc2cnc(-c3ccc(N(C)C)cc3)cc2n1-c1cccc(F)c1` [Compound 678, 6-(4-dimethylaminophenyl)-1-(3-fluorophenyl)-N-methyl-imidazo[4,5-c]pyridin-2-amine], for which the Emax was greater than 100%. In the case of `CNc1nc2cnc(Nc3cccc(O)c3)cc2n1Cc1ccccc1` [Compound 535, 3-[[1-benzyl-2-(methylamino)imidazo[4,5-c]pyridin-6-yl]amino]phenol] it was 50 to 100%; in that of `c1cncc(-c2cc3cnc(N4CCOCC4)cc3[nH]2)c1` [Compound 77, 4-[2-(3-pyridyl)-1H-pyrrolo[3,2-c]pyridin-6-yl]morpholine], 50 to 100%. In the case of `CN(C)c1ccc(-c2cc3c(Nc4ccc(O)cc4)nccc3n2C)cc1` [Compound 226, 4-[[2-(4-dimethylaminophenyl)-1-methyl-pyrrolo[3,2-c]pyridin-4-yl]amino]phenol], the Emax lay within 50 to 100%. The same measure for `COc1ccc(-c2nc3c(Nc4cccc(O)c4)nccc3[nH]2)cc1` [Compound 397, 3-[[2-(4-methoxyphenyl)-1H-imidazo[4,5-c]pyridin-4-yl]amino]phenol]: 50 to 100%.
